Measured values from US20160030415A1, “TREATMENT AND PROPHYLAXIS OF KIDNEY DISEASES” (priority 2013, published 2016).

System: STZ induced diabetic nephropathy in rats
Experiment: Study 4: HCQ and its combination with Losartan, Telmisartan, Azilsartan and Ramipril, with Glimepiride control
Format: in vivo, Wistar rats
Details: for HDL / TC / TG / GSH / TBARS / Total protein kidney / Creatinine / Total protein / Urea: after 8th week; for Glucose Day1 / Glucose Day14 / Glucose Day28 / Glucose Day42 / Glucose Day56: blood; for GSH / TBARS / Total protein kidney: kidney homogenate; for Creatinine / Total protein / Urea: serum
Procedure: The methods described in Terri et al, Diabetes Volume, 1997, 46:1612-1618, and Takashi et al, Jpn J. Pharmacol, 1997, 75, 59-64, were followed for inducing Diabetes in rats by injecting Streptozotocin. The Efficacy of the drugs was tested in two different models, one involving comparison with diabetic control (i.e. Diabetic Rats not treated with any medication) and the other involving comparison with the anti-diabetic control group (i.e. Diabetic rats administered Glimepiride) in two separate studies.
Wistar rats of either sex weighing 150-200 g were divided randomly into 28 groups consisting of 6 animals each. Diabetes was induced in rats by single administration of streptozotocin (55 mg/kg/i.p) dissolved in 0.1 M-citrate buffer, pH 4.5. Group 1 (normal control) consisted of normal rats that neither received streptozotocin nor any test drug; Group 2 served as Diabetic control; Group 3 was diabetic rats treated with Hydroxychloroquine (35 mg/kg); Group 4 was diabetic rats treated with Hydroxychloroquine (45 mg/kg) and Group 5 was diabetic rats treated with Hydroxychloroquine (70 mg/kg); Group 6 was diabetic rats treated with Losartan (5.5 mg/kg); Group 7 was diabetic rats treated with Losartan (11 mg/kg); Group 8 was diabetic rats treated with combination of Losartan (5.5 mg/kg) and Hydroxychloroquine (45 mg/kg); Group 9 was diabetic rats treated with combination of Losartan (11 mg/kg) and Hydroxychloroquine (35 mg/kg); Group 10 was diabetic rats treated with Ramipril (0.6 mg/kg); Group 11 was diabetic rats treated with Ramipril (0.3 mg/kg); Group 12 was diabetic rats treated with combination of Ramipril (0.6 mg/kg) and Hydroxychloroquine (35 mg/kg); Group 13 was diabetic rats treated with combination of Ramipril (0.3 mg/kg) and Hydroxychloroquine (45 mg/kg); Group 14 was diabetic rats treated with combination of Ramipril (0.6 mg/kg) and Hydroxychloroquine (45 mg/kg); Group 15 was diabetic rats treated with combination of Ramipril (0.3 mg/kg) and Hydroxychloroquine (35 mg/kg); Group 16 was diabetic rats treated with Telmisartan (9.5 mg/kg); Group 17 was diabetic rats treated with Telmisartan (4.5 mg/kg); Group 18 was diabetic rats treated with combination of Telmisartan (9.5 mg/kg) and Hydroxychloroquine (35 mg/kg); Group 19 was diabetic rats treated with combination of Telmisartan (4.5 mg/kg) and Hydroxychloroquine (45 mg/kg); Group 20 was diabetic rats treated with combination of Telmisartan (9.5 mg/kg) and Hydroxychloroquine (45 mg/kg); Group 21 was diabetic rats treated with combination of Telmisartan (4.5 mg/kg) and Hydroxychloroquine (35 mg/kg); Group 22 was diabetic rats treated with Azilsartan (4.5 mg/kg); Group 23 was diabetic rats treated with Azilsartan (2.5 mg/kg); Group 24 was diabetic rats treated with combination of Azilsartan (4.5 mg/kg) and Hydroxychloroquine (35 mg/kg); Group 25 was diabetic rats treated with combination of Azilsartan (2.5 mg/kg) and Hydroxychloroquine (45 mg/kg); Group 26 was diabetic rats treated with combination of Azilsartan (4.5 mg/kg) and Hydroxychloroquine (45 mg/kg); Group 27 was diabetic rats treated with combination of Azilsartan (2.5 mg/kg) and Hydroxychloroquine (35 mg/kg); Group 28 served as Anti-Diabetic control wherein diabetic rats were treated with antidiabetic drug Glimepiride (GLM) (1 mg/kg).
The study drugs were dissolved/suspended in vehicle and administered orally once a day for eight weeks. The diabetes mellitus induced nephropathy was assessed by estimating the level of serum urea, serum creatinine and total serum protein content after completion of eighth week of study. TBARS, GSH and Total Protein were measured as markers of renal oxidative stress in Kidney Homogenate after completion of eighth week of study. Blood glucose levels were also assessed at weekly interval.

[1] = dose mg/kg: HCQ 35, LT 5.5, RM 0.3, TL 4.5, AZ 2.5, alone or combined with HCQ 35
[2] = dose mg/kg: HCQ 45, LT 11, RM 0.6, TL 9.5, AZ 4.5, alone or combined with HCQ 45

`CCOC(=O)[C@H](CCc1ccccc1)N[C@@H](C)C(=O)N1[C@H](C(=O)O)C[C@@H]2CCC[C@@H]21` [Ramipril] gave an HDL [1] of 27.17 ± 1.47 mg/dL, a TC [1] of 138.33 ± 2.94 mg/dL and a TG [1] of 100.17 ± 5 mg/dL. For the same compound, the HDL [2] was 27.33 ± 1.63 mg/dL, the TC [2] was 142.17 ± 3.31 mg/dL and the TG [2] was 98.5 ± 4.93 mg/dL. The “Glucose Day1” value [1] was 281.5 ± 18.2 mg/dL, the “Glucose Day1” value [2] was 260 ± 17.19 mg/dL and the “Glucose Day14” value [1] was 216.17 ± 21.48 mg/dL. For the same compound, the “Glucose Day14” value [2] was 203 ± 14.07 mg/dL, the “Glucose Day28” value [1] was 174.17 ± 9.06 mg/dL and the “Glucose Day28” value [2] was 174.33 ± 8.91 mg/dL. The “Glucose Day42” value [1] was 158.5 ± 9.07 mg/dL, the “Glucose Day42” value [2] was 157.67 ± 9.18 mg/dL and the “Glucose Day56” value [1] was 145.33 ± 6.38 mg/dL. For the same compound, the “Glucose Day56” value [2] was 141.67 ± 5.47 mg/dL, the GSH [1] was 1.16 ± 0.62 nM/mg and the TBARS [1] was 0.67 ± 0.1 nM/mg. For the same compound, the Total protein kidney [1] was 835.33 ± 22.27 µg/mL, the GSH [2] was 1.16 ± 0.59 nM/mg and the TBARS [2] was 0.62 ± 0.15 nM/mg. The Total protein kidney [2] was 810 ± 17.12 µg/mL, the Creatinine [1] was 3.37 ± 0.32 mg/dL and the Total protein [1] was 4.76 ± 0.28 g/dL. It also gave a Urea [1] of 41.33 ± 1.97 mg/dL, a Creatinine [2] of 3.68 ± 0.24 mg/dL and a Total protein [2] of 4.77 ± 0.21 g/dL. For the same compound, the Urea [2] was 41 ± 1.79 mg/dL.

`CCN(CCO)CCCC(C)Nc1ccnc2cc(Cl)ccc12` (stereo not drawn) [Hydroxychloroquine, 2-[{4-[(7-chloroquinolin-4-yl)amino]pentyl}(ethyl)amino]ethanol] showed an HDL [1] of 29.5 ± 2.17 mg/dL, a TC [1] of 133.5 ± 3.62 mg/dL and a TG [1] of 94.83 ± 2.48 mg/dL. For the same compound, the HDL [2] was 29 ± 2.19 mg/dL, the TC [2] was 130.33 ± 2.07 mg/dL and the TG [2] was 96.83 ± 2.93 mg/dL. The HDL (dose mg/kg: HCQ 70, GLM 1) was 30.67 ± 1.86 mg/dL, the TC (dose mg/kg: HCQ 70, GLM 1) was 124.67 ± 2.94 mg/dL and the TG (dose mg/kg: HCQ 70, GLM 1) was 90.17 ± 3.49 mg/dL. The “Glucose Day1” value [1] was 268.83 ± 17.77 mg/dL, the “Glucose Day1” value [2] was 277.5 ± 17.74 mg/dL and the “Glucose Day1” value (dose mg/kg: HCQ 70, GLM 1) was 274.5 ± 16.01 mg/dL. For the same compound, the “Glucose Day14” value [1] was 203.33 ± 28.11 mg/dL, the “Glucose Day14” value [2] was 229.17 ± 10.38 mg/dL and the “Glucose Day14” value (dose mg/kg: HCQ 70, GLM 1) was 209.67 ± 21.69 mg/dL. The “Glucose Day28” value [1] was 176.83 ± 29.1 mg/dL, the “Glucose Day28” value [2] was 184.17 ± 14.5 mg/dL and the “Glucose Day28” value (dose mg/kg: HCQ 70, GLM 1) was 169.5 ± 10.48 mg/dL. For the same compound, the “Glucose Day42” value [1] was 165 ± 13.61 mg/dL, the “Glucose Day42” value [2] was 154.17 ± 9.13 mg/dL and the “Glucose Day42” value (dose mg/kg: HCQ 70, GLM 1) was 148.67 ± 8.5 mg/dL. For the same compound, the “Glucose Day56” value [1] was 151.5 ± 7.42 mg/dL, the “Glucose Day56” value [2] was 140 ± 7.56 mg/dL and the “Glucose Day56” value (dose mg/kg: HCQ 70, GLM 1) was 130.83 ± 7.22 mg/dL. The GSH [1] was 0.71 ± 0.16 nM/mg, the TBARS [1] was 0.67 ± 0.11 nM/mg and the Total protein kidney [1] was 865.33 ± 27.9 µg/mL. It also gave a GSH [2] of 0.7 ± 0.17 nM/mg, a TBARS [2] of 0.65 ± 0.13 nM/mg and a Total protein kidney [2] of 831.67 ± 24.15 µg/mL. The GSH (dose mg/kg: HCQ 70, GLM 1) was 0.67 ± 0.19 nM/mg, the TBARS (dose mg/kg: HCQ 70, GLM 1) was 0.63 ± 0.12 nM/mg and the Total protein kidney (dose mg/kg: HCQ 70, GLM 1) was 752.33 ± 18.8 µg/mL. For the same compound, the Creatinine [1] was 3.11 ± 0.16 mg/dL, the Total protein [1] was 4.52 ± 0.39 g/dL and the Urea [1] was 44.33 ± 1.75 mg/dL. It also gave a Creatinine [2] of 2.99 ± 0.34 mg/dL, a Total protein [2] of 5.4 ± 0.36 g/dL and a Urea [2] of 40.83 ± 2.14 mg/dL. It also gave a Creatinine (dose mg/kg: HCQ 70, GLM 1) of 2.68 ± 0.23 mg/dL, a Total protein (dose mg/kg: HCQ 70, GLM 1) of 5.72 ± 0.3 g/dL and a Urea (dose mg/kg: HCQ 70, GLM 1) of 38.17 ± 1.47 mg/dL.

In the case of `CCCc1nc2c(C)cc(-c3nc4ccccc4n3C)cc2n1Cc1ccc(-c2ccccc2C(=O)O)cc1` [Telmisartan], the HDL [1] is reported as 26 ± 1.67 mg/dL, the TC [1] is reported as 138.67 ± 3.93 mg/dL and the TG [1] is reported as 100.33 ± 5.57 mg/dL. The HDL [2] was 26.83 ± 1.47 mg/dL, the TC [2] was 141.5 ± 2.88 mg/dL and the TG [2] was 97.67 ± 6.09 mg/dL. The “Glucose Day1” value [1] was 281.83 ± 12.46 mg/dL, the “Glucose Day1” value [2] was 275.33 ± 15.45 mg/dL and the “Glucose Day14” value [1] was 221.83 ± 12.37 mg/dL. The “Glucose Day14” value [2] was 221.5 ± 16.02 mg/dL, the “Glucose Day28” value [1] was 181.83 ± 5.04 mg/dL and the “Glucose Day28” value [2] was 184.33 ± 8.31 mg/dL. The “Glucose Day42” value [1] was 162 ± 9.21 mg/dL, the “Glucose Day42” value [2] was 159.83 ± 7.03 mg/dL and the “Glucose Day56” value [1] was 139 ± 7.85 mg/dL. The “Glucose Day56” value [2] was 141 ± 7.07 mg/dL, the GSH [1] was 0.86 ± 0.06 nM/mg and the TBARS [1] was 0.65 ± 0.15 nM/mg. It also gave a Total protein kidney [1] of 879.17 ± 29.41 µg/mL, a GSH [2] of 0.96 ± 0.11 nM/mg and a TBARS [2] of 0.54 ± 0.14 nM/mg. The Total protein kidney [2] was 864.5 ± 25.65 µg/mL, the Creatinine [1] was 3.68 ± 0.31 mg/dL and the Total protein [1] was 4.93 ± 0.23 g/dL. It also gave a Urea [1] of 42.67 ± 2.5 mg/dL, a Creatinine [2] of 3.91 ± 0.15 mg/dL and a Total protein [2] of 4.61 ± 0.18 g/dL. The Urea [2] was 41.5 ± 2.35 mg/dL.

For `CCCCc1nc(Cl)c(CO)n1Cc1ccc(-c2ccccc2-c2nn[nH]n2)cc1` [Losartan], the HDL [1] was 27.5 ± 1.64 mg/dL, the TC [1] was 143.5 ± 3.39 mg/dL and the TG [1] was 100 ± 5.4 mg/dL. It also gave an HDL [2] of 28.5 ± 2.88 mg/dL, a TC [2] of 139.83 ± 3.19 mg/dL and a TG [2] of 98.83 ± 3.66 mg/dL. For the same compound, the “Glucose Day1” value [1] was 262.5 ± 25.35 mg/dL, the “Glucose Day1” value [2] was 268.67 ± 15.63 mg/dL and the “Glucose Day14” value [1] was 211.17 ± 21.48 mg/dL. For the same compound, the “Glucose Day14” value [2] was 215.67 ± 18.13 mg/dL, the “Glucose Day28” value [1] was 179.33 ± 7.84 mg/dL and the “Glucose Day28” value [2] was 178 ± 7.92 mg/dL. The “Glucose Day42” value [1] was 161.17 ± 4.71 mg/dL, the “Glucose Day42” value [2] was 152.17 ± 7.28 mg/dL and the “Glucose Day56” value [1] was 146.33 ± 6.65 mg/dL. The “Glucose Day56” value [2] was 139 ± 10.92 mg/dL, the GSH [1] was 0.56 ± 0.23 nM/mg and the TBARS [1] was 0.74 ± 0.1 nM/mg. It also gave a Total protein kidney [1] of 893.33 ± 29.92 µg/mL, a GSH [2] of 0.66 ± 0.23 nM/mg and a TBARS [2] of 0.63 ± 0.17 nM/mg. It also gave a Total protein kidney [2] of 829.67 ± 25.45 µg/mL, a Creatinine [1] of 3.36 ± 0.32 mg/dL and a Total protein [1] of 4.91 ± 0.2 g/dL. The Urea [1] was 39.83 ± 1.72 mg/dL, the Creatinine [2] was 3.26 ± 0.38 mg/dL and the Total protein [2] was 5.32 ± 0.2 g/dL. For the same compound, the Urea [2] was 41 ± 2.53 mg/dL.
